Legend:
CXCL14 mRNA expression [1] = experiment: cells; type: cell-based, human; conditions: for effect of addition to pioglitazone on pioglitazone induction of CXCL14 mRNA expression: added to pioglitazone, 10 days across differentiation (Figure 2B)
Experimental: (§1) • Figure 1 • A. Baseline circulating CXCL14 concentrations in girls with polycystic ovary syndrome (PCOS, N= 52) and in healthy age-matched controls (N= 21). Data are mean + SEM. • B. Longitudinal results of CXCL14 serum concentrations in girls with PCOS who received an oral contraceptive (OC, white circles, N= 16) or low-dose spironolactone, pioglitazone and metformin (SPIOMET, black circles, N= 15). […] SGBS human pre-adipocytes were treated chronically (10 days) with pioglitazone, spironolactone or metformin alone (A) or in combination (B, C, D) at the indicated doses across the adipoipogeic differentiation process. • A, B. CXCL14 transcript levels are presented as means + SEM from 4-5 independent experiments, and are expressed relative to values from untreated control cells. • C. […] SGBS cells were treated acutely (24h, at the indicated doses) when already differentiated adipocytes.
(§2) Cell culture reagents and drugs were from Sigma.

CXCL14 protein [2] = experiment: CXCL14 protein (ELISA) in cell culture medium of differentiating SGBS cells; type: cell-based, human; conditions: chronic treatment across differentiation; detectable only under pioglitazone treatment
Source text: as §2

CXCL14 mRNA expression [3] = experiment: CXCL14 transcript levels (qRT-PCR) in already differentiated SGBS adipocytes treated acutely (24h); type: cell-based, human; conditions: acute 24h treatment; spironolactone at 10 µM (Figure 3A)
Experimental: as §1, §2

CXCL14 protein [4] = conditions: sgbs adipocytes, 24 h
Experimental: as §1, §2

Structure (SMILES)	fold induction at 0.1 µM (CXCL14 mRNA expression [1]; Homo sapiens, SGBS, 240 h, read-out: induction of CXCL14 mRNA expression)	CXCL14 protein in the cell culture medium of differentiating cells (CXCL14 protein [2]) [ng/mL]	effect of addition to pioglitazone on pioglitazone induction of CXCL14 mRNA expression (CXCL14 mRNA expression [1])	CXCL14 mRNA expression on already differentiated human adipocytes (CXCL14 mRNA expression [3])	increase of the CXCL14 protein levels released by adipocytes to the cell culture medium (CXCL14 protein [4]) [fold]
CCc1ccc(CCOc2ccc(CC3SC(=O)NC3=O)cc2)nc1 (stereo not shown) [pioglitazone]	~10	0.185			
CC(=O)S[C@@H]1CC2=CC(=O)CC[C@]2(C)[C@H]2CC[C@@]3(C)[C@@H](CC[C@@]34CCC(=O)O4)[C@H]12 [spironolactone]			reduced significantly	significant induction	~8
CN(C)C(=N)N=C(N)N [metformin]			did not modify	Neither pioglitazone nor metformin alone had any effect	

From EP3842803A1, “CXCL14 IN POLYCYSTIC OVARY SYNDROME” (Katholieke Universiteit Leuven, priority 2019, dated 2021)
